According to the kinase profiling compilation of Christmann-Franck et al. (2016):

Assays:
[1] = target: STK11 (human) (UniProt Q15831)
[2] = tested on: AKT2 (human), P31751 [S474D]
[3] = target: GCK (human) (UniProt Q12851)
[4] = target: HIPK1 (human) (UniProt Q86Z02)
[5] = target: MAPK10 (human) (UniProt P53779)
[6] = target: RIPK2 (human) (UniProt O43353)
[7] = target: MYLK (human) (UniProt Q15746)
[8] = tested on: PAK2 (human), Q13177 [T402E]
[9] = tested on: AKT1 (human), P31749 [S473D]
[10] = target: MARK4 (human) (UniProt Q96L34)
[11] = target: MAP3K11 (human) (UniProt Q16584)
[12] = target: HIPK3 (human) (UniProt Q9H422)
[13] = target: MARK2 (human) (UniProt Q7KZI7)
[14] = target: AURKA (human) (UniProt O14965)
[15] = target: MINK1 (human) (UniProt Q8N4C8)
[16] = target: MAP3K9 (human) (UniProt P80192)
[17] = target: IRAK4 (human) (UniProt Q9NWZ3)
[18] = target: ERBB4 (human) (UniProt Q15303)
[19] = target: MAPKAPK3 (human) (UniProt Q16644)
MAPKAPK3 (human), sequence (Q16644 whole entry, looked up): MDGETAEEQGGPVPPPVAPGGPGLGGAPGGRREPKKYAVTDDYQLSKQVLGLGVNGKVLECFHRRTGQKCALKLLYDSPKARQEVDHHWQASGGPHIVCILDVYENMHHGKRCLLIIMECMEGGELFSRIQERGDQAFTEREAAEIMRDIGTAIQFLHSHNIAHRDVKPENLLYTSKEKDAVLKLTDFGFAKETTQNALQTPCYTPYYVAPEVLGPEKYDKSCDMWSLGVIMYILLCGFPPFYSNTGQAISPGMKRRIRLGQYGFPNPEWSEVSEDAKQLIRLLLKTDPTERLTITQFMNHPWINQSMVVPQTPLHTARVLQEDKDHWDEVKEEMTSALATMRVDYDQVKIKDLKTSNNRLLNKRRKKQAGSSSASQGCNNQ

[20] = target: RIPK2 (human) (UniProt O43353); assay: KINOMEscan competition binding; settings: compound 10.0 µM
[21] = target: STK32C (human) (UniProt Q86UX6); assay: KINOMEscan competition binding; settings: compound 10.0 µM
[22] = target: NEK6 (human) (UniProt Q9HC98); assay: KINOMEscan competition binding; settings: compound 10.0 µM
[23] = target: MAP2K5 (human) (UniProt Q13163); assay: KINOMEscan competition binding; settings: compound 10.0 µM
MAP2K5 (human), sequence (Q13163 whole entry, looked up): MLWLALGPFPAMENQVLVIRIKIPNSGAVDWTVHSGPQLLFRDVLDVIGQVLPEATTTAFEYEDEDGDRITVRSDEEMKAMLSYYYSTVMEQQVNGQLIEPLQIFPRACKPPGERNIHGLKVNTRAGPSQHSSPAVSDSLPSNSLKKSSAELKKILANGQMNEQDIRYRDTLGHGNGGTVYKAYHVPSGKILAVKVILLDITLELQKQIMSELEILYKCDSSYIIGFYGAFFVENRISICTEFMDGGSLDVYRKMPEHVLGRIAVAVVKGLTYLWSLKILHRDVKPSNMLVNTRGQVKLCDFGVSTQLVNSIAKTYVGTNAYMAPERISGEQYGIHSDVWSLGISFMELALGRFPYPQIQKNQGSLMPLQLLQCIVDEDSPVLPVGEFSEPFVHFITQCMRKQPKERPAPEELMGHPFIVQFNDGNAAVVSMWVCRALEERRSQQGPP

[24] = target: CLK1 (human) (UniProt P49759); assay: KINOMEscan competition binding; settings: compound 10.0 µM
[25] = target: AURKC (human) (UniProt Q9UQB9); assay: KINOMEscan competition binding; settings: compound 10.0 µM
AURKC (human), sequence (Q9UQB9 whole entry, looked up): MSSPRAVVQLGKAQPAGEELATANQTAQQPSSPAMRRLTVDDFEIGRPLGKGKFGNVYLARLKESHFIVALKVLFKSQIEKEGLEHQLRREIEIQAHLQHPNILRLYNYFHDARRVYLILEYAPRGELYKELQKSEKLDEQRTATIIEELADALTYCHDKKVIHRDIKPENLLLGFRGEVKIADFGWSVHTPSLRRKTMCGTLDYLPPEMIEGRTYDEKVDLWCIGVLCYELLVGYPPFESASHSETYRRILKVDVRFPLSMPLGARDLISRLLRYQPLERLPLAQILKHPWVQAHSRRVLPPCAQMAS

[26] = target: EPHA6 (human) (UniProt Q9UF33); assay: KINOMEscan competition binding; settings: compound 10.0 µM
EPHA6 (human), sequence (Q9UF33 whole entry, looked up): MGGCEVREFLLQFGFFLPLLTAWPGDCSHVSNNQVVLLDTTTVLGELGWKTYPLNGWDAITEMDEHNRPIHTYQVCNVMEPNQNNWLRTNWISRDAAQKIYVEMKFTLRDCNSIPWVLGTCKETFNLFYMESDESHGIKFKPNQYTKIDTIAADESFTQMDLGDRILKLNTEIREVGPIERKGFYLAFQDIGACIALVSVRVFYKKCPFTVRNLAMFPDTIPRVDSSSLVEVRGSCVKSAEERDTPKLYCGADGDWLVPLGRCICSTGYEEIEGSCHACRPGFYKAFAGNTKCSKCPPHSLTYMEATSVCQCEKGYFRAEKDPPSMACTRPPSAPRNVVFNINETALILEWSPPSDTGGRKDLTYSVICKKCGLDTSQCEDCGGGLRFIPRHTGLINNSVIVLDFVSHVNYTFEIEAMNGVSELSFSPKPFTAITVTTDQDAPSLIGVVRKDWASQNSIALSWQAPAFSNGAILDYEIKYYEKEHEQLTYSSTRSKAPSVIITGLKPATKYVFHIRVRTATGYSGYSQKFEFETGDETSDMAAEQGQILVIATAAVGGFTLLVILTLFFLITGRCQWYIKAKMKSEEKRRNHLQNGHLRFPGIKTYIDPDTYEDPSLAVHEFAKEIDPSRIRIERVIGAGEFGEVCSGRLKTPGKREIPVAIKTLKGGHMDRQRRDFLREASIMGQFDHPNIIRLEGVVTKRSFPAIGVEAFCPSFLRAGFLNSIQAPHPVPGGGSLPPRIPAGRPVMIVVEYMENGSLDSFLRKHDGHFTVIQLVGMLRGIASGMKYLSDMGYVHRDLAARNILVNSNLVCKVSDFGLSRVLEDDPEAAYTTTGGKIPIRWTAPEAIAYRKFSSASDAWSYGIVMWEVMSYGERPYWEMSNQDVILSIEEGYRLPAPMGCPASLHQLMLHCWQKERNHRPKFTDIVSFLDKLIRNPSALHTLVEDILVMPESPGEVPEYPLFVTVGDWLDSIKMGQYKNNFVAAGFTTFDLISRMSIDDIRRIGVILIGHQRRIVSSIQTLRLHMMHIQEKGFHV

[27] = target: CDKL3 (human) (UniProt Q8IVW4); assay: KINOMEscan competition binding; settings: compound 10.0 µM
[28] = target: ERBB3 (human) (UniProt P21860); assay: KINOMEscan competition binding; settings: compound 10.0 µM
[29] = target: MAPK8 (human) (UniProt P45983); assay: KINOMEscan competition binding; settings: compound 10.0 µM
[30] = target: ACVR2A (human) (UniProt P27037); assay: KINOMEscan competition binding; settings: compound 10.0 µM
[31] = target: MAPK12 (human) (UniProt P53778); assay: KINOMEscan competition binding; settings: compound 10.0 µM
[32] = target: PAK1 (human) (UniProt Q13153); assay: KINOMEscan competition binding; settings: compound 10.0 µM
[33] = target: MAPK14 (human) (UniProt Q16539); assay: KINOMEscan competition binding; settings: compound 10.0 µM
[34] = target: MAP2K4 (human) (UniProt P45985); assay: KINOMEscan competition binding; settings: compound 10.0 µM
[35] = target: PDGFRA (human) (UniProt P16234); assay: KINOMEscan competition binding; settings: compound 10.0 µM
[36] = target: DAPK2 (human) (UniProt Q9UIK4); assay: KINOMEscan competition binding; settings: compound 10.0 µM
DAPK2 (human), sequence (Q9UIK4 whole entry, looked up): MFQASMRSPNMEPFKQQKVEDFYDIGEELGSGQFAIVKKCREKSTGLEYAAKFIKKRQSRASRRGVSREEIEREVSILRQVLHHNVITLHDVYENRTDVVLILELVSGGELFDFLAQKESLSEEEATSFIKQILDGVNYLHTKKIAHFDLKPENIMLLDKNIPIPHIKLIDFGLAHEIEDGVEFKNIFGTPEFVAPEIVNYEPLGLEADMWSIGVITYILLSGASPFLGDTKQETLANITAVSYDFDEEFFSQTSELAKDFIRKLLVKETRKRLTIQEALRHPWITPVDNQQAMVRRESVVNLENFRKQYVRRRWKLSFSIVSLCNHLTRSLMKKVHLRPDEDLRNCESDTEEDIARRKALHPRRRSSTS

[37] = tested on: MET (human), P08581 [Y1235D]; assay: KINOMEscan competition binding; settings: compound 10.0 µM

AKT1 (human), P31749 [S473D], sequence (P31749 whole entry S473D, looked up): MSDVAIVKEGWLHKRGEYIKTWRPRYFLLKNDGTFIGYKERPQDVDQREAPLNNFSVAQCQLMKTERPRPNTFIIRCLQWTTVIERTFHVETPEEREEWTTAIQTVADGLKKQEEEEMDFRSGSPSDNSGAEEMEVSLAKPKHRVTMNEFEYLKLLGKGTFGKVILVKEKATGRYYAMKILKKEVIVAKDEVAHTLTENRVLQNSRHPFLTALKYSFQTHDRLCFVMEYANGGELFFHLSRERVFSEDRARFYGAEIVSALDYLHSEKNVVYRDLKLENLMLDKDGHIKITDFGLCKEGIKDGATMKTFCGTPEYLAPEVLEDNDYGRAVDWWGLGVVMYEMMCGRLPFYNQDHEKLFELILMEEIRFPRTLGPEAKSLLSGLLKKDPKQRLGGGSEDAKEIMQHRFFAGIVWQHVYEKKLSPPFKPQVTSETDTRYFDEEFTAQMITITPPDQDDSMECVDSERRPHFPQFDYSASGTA
STK11 (human), sequence (Q15831 whole entry, looked up): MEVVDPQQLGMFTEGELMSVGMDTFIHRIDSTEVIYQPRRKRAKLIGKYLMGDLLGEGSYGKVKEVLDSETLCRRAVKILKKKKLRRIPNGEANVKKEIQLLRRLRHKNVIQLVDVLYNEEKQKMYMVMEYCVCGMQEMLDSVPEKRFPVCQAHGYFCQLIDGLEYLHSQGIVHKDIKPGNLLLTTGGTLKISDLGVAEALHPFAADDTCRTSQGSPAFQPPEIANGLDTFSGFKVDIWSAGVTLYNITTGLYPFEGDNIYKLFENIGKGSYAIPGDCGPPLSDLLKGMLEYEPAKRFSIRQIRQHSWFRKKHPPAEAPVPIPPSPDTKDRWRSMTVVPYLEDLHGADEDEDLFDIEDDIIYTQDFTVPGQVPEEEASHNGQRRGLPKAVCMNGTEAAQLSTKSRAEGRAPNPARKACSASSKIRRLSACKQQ
GCK (human), sequence (Q12851 whole entry, looked up): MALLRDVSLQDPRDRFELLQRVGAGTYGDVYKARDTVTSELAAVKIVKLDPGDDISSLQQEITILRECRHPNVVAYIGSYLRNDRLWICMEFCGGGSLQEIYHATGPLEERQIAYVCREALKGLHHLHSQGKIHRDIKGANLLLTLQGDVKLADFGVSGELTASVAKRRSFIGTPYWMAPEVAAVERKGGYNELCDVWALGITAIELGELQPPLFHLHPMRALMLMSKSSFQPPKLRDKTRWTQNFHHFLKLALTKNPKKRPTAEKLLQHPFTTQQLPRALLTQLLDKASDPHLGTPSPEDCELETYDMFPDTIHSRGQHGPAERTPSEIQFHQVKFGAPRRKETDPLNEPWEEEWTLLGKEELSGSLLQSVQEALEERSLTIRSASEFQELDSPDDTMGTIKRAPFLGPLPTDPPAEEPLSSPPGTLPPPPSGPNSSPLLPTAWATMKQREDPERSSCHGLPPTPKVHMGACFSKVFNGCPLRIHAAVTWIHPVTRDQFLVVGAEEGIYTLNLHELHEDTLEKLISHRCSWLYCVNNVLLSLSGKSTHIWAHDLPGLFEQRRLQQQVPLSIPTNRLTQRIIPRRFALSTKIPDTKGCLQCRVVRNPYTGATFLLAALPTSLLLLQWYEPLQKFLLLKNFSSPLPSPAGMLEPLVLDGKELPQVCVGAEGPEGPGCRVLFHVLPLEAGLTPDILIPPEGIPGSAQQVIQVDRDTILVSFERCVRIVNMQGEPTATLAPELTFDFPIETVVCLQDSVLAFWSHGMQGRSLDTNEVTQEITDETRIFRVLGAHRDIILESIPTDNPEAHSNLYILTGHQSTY
RIPK2 (human), sequence (O43353 whole entry, looked up): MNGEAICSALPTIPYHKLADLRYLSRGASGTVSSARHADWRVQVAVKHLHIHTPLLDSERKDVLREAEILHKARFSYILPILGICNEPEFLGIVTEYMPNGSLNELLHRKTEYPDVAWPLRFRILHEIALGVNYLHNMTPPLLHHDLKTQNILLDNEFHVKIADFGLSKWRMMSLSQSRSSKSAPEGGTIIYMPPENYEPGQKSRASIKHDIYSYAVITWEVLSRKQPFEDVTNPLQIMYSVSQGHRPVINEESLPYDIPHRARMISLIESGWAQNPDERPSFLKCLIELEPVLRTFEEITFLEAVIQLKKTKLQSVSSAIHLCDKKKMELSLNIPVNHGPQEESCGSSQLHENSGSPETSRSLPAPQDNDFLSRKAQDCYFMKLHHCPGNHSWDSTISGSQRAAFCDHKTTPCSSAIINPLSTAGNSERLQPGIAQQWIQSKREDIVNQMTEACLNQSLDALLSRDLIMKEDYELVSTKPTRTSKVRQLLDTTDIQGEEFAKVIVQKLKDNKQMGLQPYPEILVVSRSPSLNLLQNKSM

With `COC(=O)Nc1ccc(-c2nc(N3CCOCC3)c3cnn(C4CCN(C(=O)OC)CC4)c3n2)cc1` the per cent of control ([1]; compound 1.0 µM) was 102%, the per cent of control ([1]; compound 10.0 µM) was 112% and the per cent of control ([2]; compound 1.0 µM) was 102%. The per cent of control ([2]; compound 10.0 µM) was 89%, the per cent of control ([3]; compound 1.0 µM) was 94% and the per cent of control ([3]; compound 10.0 µM) was 105%. It also gave a per cent of control ([4]; compound 1.0 µM) of 85%, a per cent of control ([4]; compound 10.0 µM) of 89% and a per cent of control ([5]; compound 1.0 µM) of 94%. The per cent of control ([5]; compound 10.0 µM) was 106%, the per cent of control ([6]; compound 1.0 µM) was 94% and the per cent of control ([6]; compound 10.0 µM) was 72%. For the same molecule, the per cent of control ([7]; compound 1.0 µM) was 97%, the per cent of control ([7]; compound 10.0 µM) was 87% and the per cent of control ([8]; compound 1.0 µM) was 92%. The per cent of control ([8]; compound 10.0 µM) was 91%, the per cent of control ([9]; compound 1.0 µM) was 89% and the per cent of control ([9]; compound 10.0 µM) was 87%. For the same molecule, the per cent of control ([10]; compound 1.0 µM) was 91%, the per cent of control ([10]; compound 10.0 µM) was 109% and the per cent of control ([11]; compound 1.0 µM) was 92%. For the same molecule, the per cent of control ([11]; compound 10.0 µM) was 106%, the per cent of control ([12]; compound 1.0 µM) was 112% and the per cent of control ([12]; compound 10.0 µM) was 85%. It also gave a per cent of control ([13]; compound 1.0 µM) of 96%, a per cent of control ([13]; compound 10.0 µM) of 118% and a per cent of control ([14]; compound 1.0 µM) of 90%. The per cent of control ([14]; compound 10.0 µM) was 63%, the per cent of control ([15]; compound 1.0 µM) was 100% and the per cent of control ([15]; compound 10.0 µM) was 100%. The per cent of control ([16]; compound 1.0 µM) was 95%, the per cent of control ([16]; compound 10.0 µM) was 109% and the per cent of control ([17]; compound 1.0 µM) was 107%. It also gave a per cent of control ([17]; compound 10.0 µM) of 114%, a per cent of control ([18]; compound 1.0 µM) of 91% and a per cent of control ([18]; compound 10.0 µM) of 108%. It also gave a per cent of control ([19]; compound 1.0 µM) of 109%, a per cent of control ([19]; compound 10.0 µM) of 101% and a kinase still bound, per cent of control [20] of 65%. For the same molecule, the kinase still bound, per cent of control [21] was 89%, the kinase still bound, per cent of control [22] was 100% and the kinase still bound, per cent of control [23] was 100%. It also gave a kinase still bound, per cent of control [24] of 100%, a kinase still bound, per cent of control [25] of 100% and a kinase still bound, per cent of control [26] of 90%. The per cent of control [27] was 64%, the kinase still bound, per cent of control [28] was 100% and the kinase still bound, per cent of control [29] was 100%. The kinase still bound, per cent of control [30] was 100%, the kinase still bound, per cent of control [31] was 0% and the kinase still bound, per cent of control [32] was 95%. The kinase still bound, per cent of control [33] was 80%, the kinase still bound, per cent of control [34] was 74% and the kinase still bound, per cent of control [35] was 92%. It also gave a kinase still bound, per cent of control [36] of 96%.
For `CC(C)n1nc(-c2cc3cc(O)ccc3[nH]2)c2c(N)ncnc21`, the kinase still bound, per cent of control [20] was 0.8%, the kinase still bound, per cent of control [21] was 69% and the kinase still bound, per cent of control [22] was 100%. For the same molecule, the kinase still bound, per cent of control [23] was 0.35%, the kinase still bound, per cent of control [24] was 14% and the kinase still bound, per cent of control [25] was 68%. It also gave a kinase still bound, per cent of control [26] of 5.2%, a per cent of control [27] of 100% and a kinase still bound, per cent of control [28] of 0%. It also gave a kinase still bound, per cent of control [29] of 89%, a kinase still bound, per cent of control [37] of 88% and a kinase still bound, per cent of control [30] of 0.5%. The kinase still bound, per cent of control [31] was 59%, the kinase still bound, per cent of control [32] was 52% and the kinase still bound, per cent of control [33] was 95%. The kinase still bound, per cent of control [34] was 3.4%, the kinase still bound, per cent of control [35] was 2.2% and the kinase still bound, per cent of control [36] was 3.8%.
With `COc1ccc(-c2ccc3c(N4CCOCC4)nc(N4C[C@@H](C)O[C@@H](C)C4)nc3n2)cc1CO` the kinase still bound, per cent of control [20] was 100%, the kinase still bound, per cent of control [21] was 87% and the kinase still bound, per cent of control [22] was 96%. The kinase still bound, per cent of control [23] was 100%, the kinase still bound, per cent of control [24] was 52% and the kinase still bound, per cent of control [25] was 100%. For the same molecule, the kinase still bound, per cent of control [26] was 100%, the per cent of control [27] was 90% and the kinase still bound, per cent of control [28] was 85%. For the same molecule, the kinase still bound, per cent of control [29] was 87%, the kinase still bound, per cent of control [37] was 100% and the kinase still bound, per cent of control [30] was 100%. The kinase still bound, per cent of control [31] was 100%, the kinase still bound, per cent of control [32] was 84% and the kinase still bound, per cent of control [33] was 99%. It also gave a kinase still bound, per cent of control [34] of 88%, a kinase still bound, per cent of control [35] of 94% and a kinase still bound, per cent of control [36] of 80%.
Molecule `CCC(=O)N1CCN(c2ccc(-n3c(=O)ccc4cnc5ccc(-c6cnc7ccccc7c6)cc5c43)cc2C(F)(F)F)CC1` has a per cent of control ([1]; compound 1.0 µM) of 96%, a per cent of control ([1]; compound 10.0 µM) of 80% and a per cent of control ([2]; compound 1.0 µM) of 95%. For the same molecule, the per cent of control ([2]; compound 10.0 µM) was 84%, the per cent of control ([3]; compound 1.0 µM) was 69% and the per cent of control ([3]; compound 10.0 µM) was 25%. The per cent of control ([4]; compound 1.0 µM) was 76%, the per cent of control ([4]; compound 10.0 µM) was 85% and the per cent of control ([5]; compound 1.0 µM) was 99%. For the same molecule, the per cent of control ([5]; compound 10.0 µM) was 79%, the per cent of control ([6]; compound 10.0 µM) was 64% and the per cent of control ([7]; compound 1.0 µM) was 94%. For the same molecule, the per cent of control ([7]; compound 10.0 µM) was 83%, the per cent of control ([8]; compound 1.0 µM) was 93% and the per cent of control ([8]; compound 10.0 µM) was 82%. The per cent of control ([9]; compound 1.0 µM) was 94%, the per cent of control ([9]; compound 10.0 µM) was 71% and the per cent of control ([10]; compound 1.0 µM) was 94%. It also gave a per cent of control ([10]; compound 10.0 µM) of 97%, a per cent of control ([11]; compound 1.0 µM) of 99% and a per cent of control ([11]; compound 10.0 µM) of 86%. For the same molecule, the per cent of control ([12]; compound 1.0 µM) was 107%, the per cent of control ([12]; compound 10.0 µM) was 91% and the per cent of control ([13]; compound 1.0 µM) was 117%. The per cent of control ([13]; compound 10.0 µM) was 102%, the per cent of control ([14]; compound 1.0 µM) was 88% and the per cent of control ([14]; compound 10.0 µM) was 68%. The per cent of control ([15]; compound 1.0 µM) was 69%, the per cent of control ([15]; compound 10.0 µM) was 14% and the per cent of control ([16]; compound 1.0 µM) was 92%. The per cent of control ([16]; compound 10.0 µM) was 48%, the per cent of control ([17]; compound 1.0 µM) was 112% and the per cent of control ([17]; compound 10.0 µM) was 76%. The per cent of control ([18]; compound 1.0 µM) was 110%, the per cent of control ([18]; compound 10.0 µM) was 111% and the per cent of control ([19]; compound 1.0 µM) was 113%. For the same molecule, the per cent of control ([19]; compound 10.0 µM) was 105%, the kinase still bound, per cent of control [20] was 44% and the kinase still bound, per cent of control [21] was 100%. The kinase still bound, per cent of control [22] was 99%, the kinase still bound, per cent of control [23] was 100% and the kinase still bound, per cent of control [24] was 49%. The kinase still bound, per cent of control [25] was 91%, the kinase still bound, per cent of control [26] was 75% and the per cent of control [27] was 92%. The kinase still bound, per cent of control [28] was 44%, the kinase still bound, per cent of control [29] was 22% and the kinase still bound, per cent of control [37] was 100%. The kinase still bound, per cent of control [30] was 47%, the kinase still bound, per cent of control [31] was 71% and the kinase still bound, per cent of control [32] was 73%. The kinase still bound, per cent of control [33] was 90%, the kinase still bound, per cent of control [34] was 30% and the kinase still bound, per cent of control [35] was 63%.
